ChEMBL document CHEMBL3045068, “Effect of methomyl and oxamyl soil applications on early control of nematodes and insects” (Pest Manag Sci, 2011)
In brackets after ≈: the same amount, converted by molar mass.

What was measured:
Aphis gossypii = test: Insecticidal activity against Aphis gossypii (cotton aphid) infested cotton assessed as mortality applied to soil after 5 days; assay type: functional
Myzus persicae = test: Insecticidal activity against Myzus persicae (green peach aphid) infested tomato assessed as mortality applied to soil after 5 days; assay type: functional
Phaseolus lunatus [1] = test: Phytotoxicity in Phaseolus lunatus (lima bean) root assessed as root dry weight at 1.12 kg ai/ha applied to soil under green house conditions (reference value: 0.36 +/- 0.071 g); assay type: organism-based; conditions: in vivo, other
Phaseolus lunatus [2] = test: Phytotoxicity in Phaseolus lunatus (lima bean) root assessed as root dry weight at 1.56 kg ai/ha applied to soil measured up to 7 days under green house conditions (reference value: 0.36 +/- 0.071 g); assay type: organism-based; conditions: in vivo, other, 168 h
Spodoptera exigua = test: Insecticidal activity against Spodoptera exigua infested tomato assessed as mortality applied through foliar spray after 72 hr; assay type: functional
Meloidogyne incognita [3] = test: Nematicidal activity against second juvenile stage of Meloidogyne incognita (root-knot nematode) infected lima bean plant assessed as reduction in root gall index at 4 kg ai/ha applied to soil measured up to 14 days post planting under green house conditions (reference value: 7 +/- 0.27%); assay type: functional
Meloidogyne incognita [4] = test: Nematicidal activity against second juvenile stage of Meloidogyne incognita (root-knot nematode) infected lima bean plant assessed as root dry weight at 2 kg ai/ha applied to soil measured up to 7 days post planting under green house conditions (reference value: 0.5 +/- 0.052 g); assay type: functional
Meloidogyne incognita [5] = test: Nematicidal activity against second juvenile stage of Meloidogyne incognita (root-knot nematode) infected pea plant assessed as emergence at 2 kg ai/ha applied to soil measured up to 7 days post planting under green house conditions (reference value: 75 +/- 13%); assay type: functional
Meloidogyne incognita [6] = test: Nematicidal activity against second juvenile stage of Meloidogyne incognita (root-knot nematode) assessed as mortality after 72 hr; assay type: functional
Phaseolus lunatus [7] = test: Phytotoxicity in Phaseolus lunatus (lima bean) plant assessed as plant dry weight at 1.56 kg ai/ha applied to soil measured up to 7 days under green house conditions (reference value: 1.20 +/- 0.21 g); assay type: organism-based; conditions: in vivo, other, 168 h
Phaseolus lunatus [8] = test: Phytotoxicity in Phaseolus lunatus (lima bean) plant assessed as plant dry weight at 0.56 kg ai/ha applied to soil under green house conditions (reference value: 1.20 +/- 0.21 g); assay type: organism-based; conditions: in vivo, other
Phaseolus lunatus [9] = test: Phytotoxicity in Phaseolus lunatus (lima bean) plant assessed as emergence at 1.12 kg ai/ha applied to soil under green house conditions (reference value: 70 +/- 16%); assay type: organism-based; conditions: in vivo, other
Pisum sativum [10] = test: Phytotoxicity in Pisum sativum (pea) assessed as root dry weight at 4 kg ai/ha applied to soil measured up to 7 days post planting at 19 degC (reference value: 2 +/- 0.21 g); assay type: organism-based; conditions: lathyrus oleraceus, in vivo, other, 168 h
Pisum sativum [11] = test: Phytotoxicity in Pisum sativum (pea) assessed as root dry weight at 3 kg ai/ha applied to soil measured up to 7 days post planting at 27 degC under green house conditions (reference value: 0.33 +/- 0.075 g); assay type: organism-based; conditions: lathyrus oleraceus, in vivo, other, 168 h
Pisum sativum [12] = test: Phytotoxicity in Pisum sativum (pea) assessed as plant fresh weight at 3 kg ai/ha applied to soil measured up to 7 days post planting at 19 degC (reference value: 9.4 +/- 0.54 g); assay type: organism-based; conditions: lathyrus oleraceus, in vivo, other, 168 h
Pisum sativum [13] = test: Phytotoxicity in Pisum sativum (pea) assessed as plant height at 3 kg ai/ha applied to soil measured up to 7 days post planting at 27 degC under green house conditions (reference value: 9.6 +/- 1.5 cm); assay type: organism-based; conditions: lathyrus oleraceus, in vivo, other, 168 h
Pisum sativum [14] = test: Phytotoxicity in Pisum sativum (pea) assessed as plant height at 3 kg ai/ha applied to soil measured up to 14 days post planting at 27 degC under green house conditions (reference value: 9.6 +/- 1.5 cm); assay type: organism-based; conditions: lathyrus oleraceus, in vivo, other, 336 h
Pisum sativum [15] = test: Phytotoxicity in Pisum sativum (pea) assessed as plant height at 2 kg ai/ha applied to soil measured up to 7 days post planting at 27 degC under green house conditions (reference value: 9.6 +/- 1.5 cm); assay type: organism-based; conditions: lathyrus oleraceus, in vivo, other, 168 h
Pisum sativum [16] = test: Phytotoxicity in Pisum sativum (pea) assessed as emergence at 4 kg ai/ha applied to soil measured up to 7 days post planting at 19 degC relative to untreated control; assay type: organism-based; conditions: lathyrus oleraceus, in vivo, other, 168 h
Meloidogyne incognita [17] = test: Nematicidal activity against second juvenile stage of Meloidogyne incognita (root-knot nematode) infected lima bean plant assessed as root dry weight at 3 kg ai/ha applied to soil measured up to 7 days post planting under green house conditions (reference value: 0.5 +/- 0.052 g); assay type: functional
Meloidogyne incognita [18] = test: Nematicidal activity against second juvenile stage of Meloidogyne incognita (root-knot nematode) infected lima bean plant assessed as root dry weight at 3 kg ai/ha applied to soil measured up to 14 days post planting under green house conditions (reference value: 0.5 +/- 0.052 g); assay type: functional
Meloidogyne incognita [19] = test: Nematicidal activity against second juvenile stage of Meloidogyne incognita (root-knot nematode) infected lima bean plant assessed as reduction in root gall index at 3 kg ai/ha applied to soil measured up to 14 days post planting under green house conditions (reference value: 7 +/- 0.27%); assay type: functional
Meloidogyne incognita [20] = test: Nematicidal activity against second juvenile stage of Meloidogyne incognita (root-knot nematode) infected lima bean plant assessed as reduction in root gall index at 2 kg ai/ha applied to soil measured up to 7 days post planting under green house conditions (reference value: 7 +/- 0.27%); assay type: functional
Meloidogyne incognita [21] = test: Nematicidal activity against second juvenile stage of Meloidogyne incognita (root-knot nematode) infected lima bean plant assessed as emergence at 1 kg ai/ha applied to soil measured during planting under green house conditions (reference value: 83 +/- 5%); assay type: functional

CNC(=O)ON=C(C)SC [METHOMYL]
LC90 (Aphis gossypii): 11 µg/mL (≈ 67.8 µM) | LC50 (Aphis gossypii; Aphis gossypii, soil, 120 h): 5 µg/mL (≈ 30.8 µM) | LC90 (Myzus persicae): 11 µg/mL (≈ 67.8 µM) | LC50 (Myzus persicae; Myzus persicae, soil, 120 h): 1 µg/mL (≈ 6.16 µM) | Activity (Phaseolus lunatus [1]): 0.35 g | Activity (Phaseolus lunatus [2]): 0.26 g | LC90 (Spodoptera exigua): 60 µg/mL (≈ 370 µM) | LC50 (Spodoptera exigua; Spodoptera exigua, foliar, 72 h): 29 µg/mL (≈ 179 µM) | Root_galling_index (Meloidogyne incognita [3]): 0% | Activity (Meloidogyne incognita [4]): 0.38 g | Activity (Meloidogyne incognita [5]): 50% | LC90 (Meloidogyne incognita [6]): 9.8 µg/mL (≈ 60.4 µM) | LC50 (Meloidogyne incognita [6]; Meloidogyne incognita, Juvenile stage, 72 h): 3.6 µg/mL (≈ 22.2 µM) | Activity (Phaseolus lunatus [7]): 1.26 g | Activity (Phaseolus lunatus [8]): 1.2 g | Activity (Phaseolus lunatus [9]): 80% | Activity (Pisum sativum [10]): 1.7 g | Activity (Pisum sativum [11]): 0.2 g | Activity (Pisum sativum [12]): 9.4 g | Activity (Pisum sativum [13]): 7 cm | Activity (Pisum sativum [14]): 9.1 cm | Activity (Pisum sativum [15]): 7.1 cm | Activity (Pisum sativum [16]): 100% | Activity (Meloidogyne incognita [17]): 0.39 g | Activity (Meloidogyne incognita [18]): 0.38 g | Root_galling_index (Meloidogyne incognita [19]): 0% | Root_galling_index (Meloidogyne incognita [20]): 0% | Activity (Meloidogyne incognita [21]): 100%
